Among the test systems are 786-0; A498; HCT-116; HT-29; IGROV-1; LOX IMVI; NCI-H23; NCI-H522; OVCAR-3; RPMI-8226; SF-268; SF-295; SK-MEL-28; SN12C; SNB-78; UACC-62; XF498; Hs-578T; NCI/ADR-RES; PC-3.
Experiment in all cases: NCI anticancer screen, dose series, 48 h

This note sets out measurements from ChEMBL document CHEMBL1201862, “PubChem BioAssay data set” (2004).

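Where inhibition never reached the appropriate level, the endpoint shown equals the highest concentration tested. Otherwise, values were interpolated linearly from a five-concentration, 48-hour dose response in 96-well plates. GI50 = concentration required for 50% inhibition of growth.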 The source made the active and inactive calls. Cut-off read from the data, not from the text of the source: active = GI50 up to about 1.1 µM and inactive = higher. A value given as a limit tells only on which side of the number the result lay.

With `CNC(=O)OCc1nccc2c(C)c3[nH]c4ccc(OC)cc4c3cc12`, the GI50 in the experiment on 786-0 is 3.78 µM (inactive); in the experiment with A498, 6.7 µM (inactive); with HCT-116, 1.95 µM (inactive); with HT-29, 2.54 µM (inactive); in the experiment on IGROV-1 it was 4.8 µM (inactive); in the experiment on LOX IMVI it was 3.04 µM (inactive). In addition, the GI50 in the experiment on NCI-H23 is 4.74 µM (inactive); in the experiment on NCI-H522 it was 5.09 µM (inactive); in the experiment with OVCAR-3, 21.9 µM (inactive); in the experiment with RPMI-8226, 2.59 µM (inactive); with SF-268, 10.5 µM (inactive); in the experiment on SF-295 it was 8.75 µM (inactive). The GI50 in the experiment on SK-MEL-28 was 9.73 µM (inactive); in the experiment on SN12C, 19.1 µM (inactive); with SNB-78 it was 16.6 µM (inactive); with UACC-62 it was 6.37 µM (inactive); in the experiment on XF498 it was 14.1 µM (inactive).

For `CCOc1ccc(NC2=CC(=O)C(=O)c3ccccc32)cc1`, the GI50 with 786-0 is 3.78 µM (inactive); with A498, 3.61 µM (inactive); with HCT-116, 3.35 µM (inactive); in the experiment on HT-29 it was 5.35 µM (inactive); with Hs-578T it was 2.37 µM (inactive); in the experiment with IGROV-1, 4.29 µM (inactive). In addition, the GI50 with LOX IMVI was 1.3 µM (inactive); with NCI-H23, 1.91 µM (inactive); in the experiment with NCI-H522 it was 1.81 µM (inactive); in the experiment on NCI/ADR-RES it was 2.83 µM (inactive); in the experiment on OVCAR-3, 2.86 µM (inactive); with PC-3 it was 3.12 µM (inactive). Further, the GI50 in the experiment with RPMI-8226 was 4.47 µM (inactive); in the experiment on SF-268, 6.25 µM (inactive); with SF-295, 2.61 µM (inactive); with SK-MEL-28, 3.27 µM (inactive); in the experiment on SN12C, 1.82 µM (inactive); with SNB-78, 15.5 µM (inactive). Further, the results for the GI50 in the experiment on UACC-62 and with XF498 were 1.72 µM (inactive) and 2.25 µM (inactive), respectively.

As to `Nn1c(=O)n(Cc2ccccc2)n(-c2ccccc2)c1=O`, the GI50 in the experiment on 786-0, in the experiment with A498, with HCT-116, in the experiment with HT-29, in the experiment with IGROV-1 and in the experiment with LOX IMVI was > 100 µM (inactive) throughout. The GI50 in the experiment on NCI-H23, with NCI-H522, in the experiment with OVCAR-3, in the experiment with RPMI-8226, in the experiment with SF-268 and in the experiment on SF-295 was > 100 µM (inactive) throughout. Besides, the GI50 in the experiment on SK-MEL-28, with SN12C, with SNB-78, in the experiment on UACC-62 and in the experiment on XF498 was > 100 µM (inactive) each time.

Consider `CC(=O)c1ccc(NC(=O)/C(CC(=O)c2sc(-c3cccnc3)nc2C)=N/NC(N)=O)cc1`, for which the GI50 is 27.9 µM (inactive) in the experiment with 786-0; 31.5 µM (inactive) in the experiment on A498; 22.6 µM (inactive) in the experiment on HCT-116; > 100 µM (inactive) with HT-29; > 100 µM (inactive) in the experiment on IGROV-1; > 100 µM (inactive) in the experiment with LOX IMVI. Also, the GI50 in the experiment on NCI-H23 was > 10 µM (inactive); with NCI-H522, 98.4 µM (inactive); in the experiment on OVCAR-3, > 100 µM (inactive); with RPMI-8226, 23.5 µM (inactive); in the experiment with SF-268, 38.7 µM (inactive); with SF-295, 41.7 µM (inactive). The GI50 in the experiment with SK-MEL-28 is > 100 µM (inactive); with SN12C, 51.6 µM (inactive); with SNB-78 it was > 100 µM (inactive); in the experiment on UACC-62, 52.2 µM (inactive); with XF498 it was > 100 µM (inactive).

As for `O=C1C=C(Nc2ccccc2C(=O)CC(=O)C(=O)Nc2cccc(C(F)(F)F)c2)c2ccccc2C1=O`, the GI50 is 25.8 µM (inactive) with 786-0; > 100 µM (inactive) with A498; 23 µM (inactive) in the experiment on HCT-116; 57.4 µM (inactive) in the experiment on HT-29; 21 µM (inactive) in the experiment on Hs-578T; 28.4 µM (inactive) with IGROV-1. For the same compound, the GI50 in the experiment with LOX IMVI was 6.04 µM (inactive); in the experiment with NCI-H23, 13.6 µM (inactive); with NCI-H522, 23.1 µM (inactive); in the experiment on NCI/ADR-RES, 13.5 µM (inactive); in the experiment on OVCAR-3, 6.35 µM (inactive); in the experiment on PC-3 it was 17.9 µM (inactive). Besides, the GI50 was 17.6 µM (inactive) in the experiment on RPMI-8226; 17.2 µM (inactive) with SF-268; 21.3 µM (inactive) in the experiment with SF-295; 24.1 µM (inactive) in the experiment on SK-MEL-28; 17.1 µM (inactive) in the experiment with SN12C; > 36.7 µM (inactive) with SNB-78. The GI50 in the experiment with UACC-62 was 15.8 µM (inactive); in the experiment on XF498 it was 26.2 µM (inactive).

Consider `CN(C)CC1(Cc2ccccc2)CCC(Cc2ccccc2)C1=O` (stereo unspecified), for which the GI50 is 2.07 µM (inactive) with 786-0; 15.5 µM (inactive) in the experiment on A498; 11.1 µM (inactive) in the experiment with HCT-116; 13 µM (inactive) in the experiment on HT-29; 15.6 µM (inactive) in the experiment with Hs-578T; 9.04 µM (inactive) in the experiment with IGROV-1. Moreover, the GI50 with LOX IMVI was 6.9 µM (inactive); in the experiment on NCI-H23 it was 18.1 µM (inactive); with NCI-H522, 2.84 µM (inactive); in the experiment on NCI/ADR-RES it was 9.68 µM (inactive); in the experiment on OVCAR-3, 6.95 µM (inactive); in the experiment with PC-3, 10.1 µM (inactive). Besides, the GI50 in the experiment on RPMI-8226 was 1.89 µM (inactive); in the experiment on SF-268, 14.8 µM (inactive); in the experiment with SF-295, 16.6 µM (inactive); in the experiment with SK-MEL-28, 12.3 µM (inactive); in the experiment with SN12C, 9.77 µM (inactive); in the experiment with SNB-78, 15.8 µM (inactive). Further, the values for the GI50 with UACC-62 and with XF498 were 16.5 µM (inactive) and 21.9 µM (inactive), respectively.

As for `CCN(CC)CCCNc1nccc2c(C)c3[nH]c4ccncc4c(=O)c3cc12`, the GI50 with 786-0 was 0.977 µM (active); in the experiment with A498 it was 7.28 µM (inactive); in the experiment on HCT-116, 0.514 µM (active); in the experiment with HT-29, 1.32 µM (inactive); with IGROV-1 it was 2.93 µM (inactive); in the experiment on LOX IMVI it was 0.975 µM (active). Also, the GI50 was 1.95 µM (inactive) in the experiment with NCI-H23; 0.52 µM (active) with NCI-H522; 1.8 µM (inactive) in the experiment with OVCAR-3; 2.64 µM (inactive) in the experiment with RPMI-8226; 0.643 µM (active) with SF-268; 3.64 µM (inactive) in the experiment with SF-295. The GI50 with SK-MEL-28 was 3.27 µM (inactive); with SN12C it was 1.5 µM (inactive); in the experiment on SNB-78, 2.2 µM (inactive); in the experiment with UACC-62 it was 1.53 µM (inactive); in the experiment with XF498 it was 2.46 µM (inactive).

Take `O=C(N[C@H]1CC2(C=C(I)C(=O)C(I)=C2)OC1=O)OCc1ccccc1`: the GI50 with 786-0 was 20.8 µM (inactive); in the experiment on A498, > 100 µM (inactive); in the experiment with HCT-116, 15.9 µM (inactive); in the experiment with HT-29 it was 17.5 µM (inactive); with LOX IMVI, 16 µM (inactive); in the experiment on NCI-H23, 17.8 µM (inactive). Also, the GI50 in the experiment with NCI-H522 was 13.4 µM (inactive); in the experiment with OVCAR-3, 17.3 µM (inactive); in the experiment on RPMI-8226, 26.2 µM (inactive); in the experiment on SF-268 it was 18.1 µM (inactive); with SF-295 it was 19.5 µM (inactive); in the experiment on SK-MEL-28, 18.5 µM (inactive). Also, the GI50 is 18.2 µM (inactive) in the experiment on SN12C, 17.4 µM (inactive) with SNB-78, 16.5 µM (inactive) in the experiment on UACC-62 and 13.8 µM (inactive) with XF498.

In the case of `Nc1ccc(C(=O)NN2C(=O)C(Cl)C2c2ccc(O)cc2)cc1` (stereo unspecified), the GI50 in the experiment on 786-0 is 17.5 µM (inactive); in the experiment on A498 it was 36 µM (inactive); with HCT-116 it was 19.2 µM (inactive); in the experiment with HT-29 it was 24.7 µM (inactive); in the experiment with IGROV-1, 17.8 µM (inactive); with LOX IMVI it was 9.27 µM (inactive). Moreover, the GI50 in the experiment with NCI-H23 is 17.9 µM (inactive); in the experiment on NCI-H522 it was 11.6 µM (inactive); in the experiment with OVCAR-3, 15 µM (inactive); in the experiment on RPMI-8226, 49.1 µM (inactive); with SF-268, 13.4 µM (inactive); in the experiment with SF-295 it was 33 µM (inactive). The GI50 is 22.1 µM (inactive) with SK-MEL-28; 20.1 µM (inactive) with SN12C; 11.9 µM (inactive) in the experiment with SNB-78; 14.9 µM (inactive) in the experiment on UACC-62; 14.7 µM (inactive) with XF498.
